Source: patent US11000033B2, “Ketone or oxime compound, and herbicide” (NISSAN CHEMICAL CORPORATION, priority 2014, dated 2021)

Columns and labels:
Format in all cases: in vivo
beet = assay: Test Example 4: effect on crop by soil treatment (symbol f)
Procedure, shortened: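 Seeds were sown in spots on sterilized diluvial soil in a plastic box and covered with about 1.5 cm of soil. Plants were then grown in a greenhouse at 25° C. to 30° C.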

[1] = tested on: Echinochloa oryzacola Vasing.; assay: Test Example 2: herbicidal activity, application during weed generation in submerged conditions (symbol A); settings: Table 23, grade 0-5 by criteria of Test Example 1
Procedure, shortened: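 Paddy pot test, submerged (4 cm water), alluvial soil, mixed sowing; greenhouse 25–30° C. Emulsion formulation diluted to predetermined rate, applied onto floodwater at 1–2 leaf stage. Visual herbicidal rating at 3 wk post-treatment.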

soybean = assay: Test Example 5: effect on crop by foliage application, plastic box (symbol d); settings: 3 weeks after application
Procedure, shortened: (§1)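 Sterilized diluvial soil, plastic box (21 × 13 × 7 cm); spot sowing, ~1.5 cm soil cover; greenhouse 25–30° C.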

Leptochloa chinensis = assay: Test Example 3: herbicidal effect by foliage application, Wagner pot (symbol D); settings: for D (Leptochloa chinensis) herbicidal effect grade: Table 24
Procedure, shortened: (§2)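 Foliar spray of water-diluted emulsion formulation at a predetermined herbicide amount onto 14-day-old plants in flooded alluvial soil (water depth 0.1–0.5 cm), greenhouse 25–30 °C; rice sown alongside. Scored 3 wk post-application on set criteria.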

Monochoria vaginalis = assay: Test Example 1: herbicidal activity, application before weed generation in submerged conditions (symbol C)
Procedure, shortened: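 Flooded alluvial soil (4 cm water) was mixed-sown with the three weed species, and 2.5-leaf rice seedlings were transplanted. On sowing day, a water-diluted emulsion at a predetermined rate was applied to the water surface. After 3 weeks in a 25–30 °C greenhouse, effect was scored 0–5.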

Lolium multiflorum Lam. = assay: Test Example 4: herbicidal effect by soil treatment (symbol K)
Procedure, shortened: (§3)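 Seeds were sown in sterilized diluvial soil, covered with about 1.5 cm of soil, and the soil surface was sprayed with a water-diluted emulsion of the compound at a predetermined rate. Plants grew in a greenhouse at 25° C. to 30° C.; effects were scored visually 3 weeks after application.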

corn = assay: Test Example 5: effect on crop by foliage application, plastic box (symbol c); settings: 3 weeks after application
Procedure, shortened: as §1

[2] = tested on: Echinochloa crus-galli var. crus-galli; assay: Test Example 3: herbicidal effect by foliage application, Wagner pot (symbol H); settings: for H (Echinochloa crus-galli var. crus-galli) herbicidal effect grade: Table 24
Procedure, shortened: as §2

transplanted rice plant = assay: Test Example 1: effect on crop, application before weed generation in submerged conditions (symbol a)
Procedure, shortened: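 Alluvial soil pots flooded to 4 cm water, sown with Echinochloa oryzacola, Scirpus juncoides and Monochoria vaginalis, then transplanted with 2.5 leaf stage rice seedlings; pre-emergence application. Greenhouse 25° C. to 30° C.; scored 0–5 by herbicidal ratio 3 weeks after application.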

[3] = tested on: directly sowed rice plant; assay: Test Example 3: effect on crop by foliage application, Wagner pot (symbol b); settings: for b (directly sowed rice plant) effect on crop grade: Table 24
Procedure, shortened: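 Wagner pot (1/10000 are), alluvial soil, submerged 0.1–0.5 cm; sown E. crus-galli var. crus-galli, L. chinensis, C. difformis, rice; greenhouse 25–30 °C.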

Chenopodium album = assay: Test Example 4: herbicidal effect by soil treatment (symbol O); settings: 320 g/ha
Excerpt: Herbicidal Effect Test by Soil Treatment
Sterilized diluvial soil was placed in a plastic box having a length of 21 cm, a width of 13 cm, and a depth of 7 cm. Each of the seeds of Digitaria ciliaris, Setaria viridis, Echinochloa crus-galli var. crus-galli, Avena fatua, Alopecurus myosuroides, Lolium multiflorum Lam., Apera spica-venti, Abutilon theophrasti, Amaranthus retroflexus, Chenopodium album, Stellaria media, Galium spurium, Veronica persica, corn, soybean, rice, wheat, beet, and rapeseed was sowed in a spot-like manner and was covered with the soil of a thickness of about 1.5 cm. Subsequently, the emulsion agent of the compound present invention prepared in accordance with Formulation Example 2 was diluted with water so as to be a predetermined herbicide amount and the diluted emulsion agent was uniformly applied to the surface of the soil with a small-size spray. The plastic box was placed in a greenhouse of 25° C. to 30° C. to grow plant. 3 weeks later from the herbicide application, the effect to each plant was investigated in accordance with the criteria of Test Example 1.

Digitaria ciliaris = assay: Test Example 4: herbicidal effect by soil treatment (symbol F)
Procedure, shortened: as §3

[4] = application herbicide amount 320 g/ha
[5] = application herbicide amount 192 g/ha

SMILES | f: beet, effect grade on crop (beet; 320 g/ha) | Herbicidal effect grade, A: Echinochloa oryzacola Vasing. [1, 4] | d: soybean, effect on crop (criteria 0-5) (soybean; 320 g/ha) | herbicidal effect on D (Leptochloa chinensis), grade 0-5 (Leptochloa chinensis; [4]) | Herbicidal effect grade, C: Monochoria vaginalis (Monochoria vaginalis; [4]) | K: Lolium multiflorum Lam., herbicidal effect grade (Lolium multiflorum Lam.; 320 g/ha) | c: corn, effect on crop (criteria 0-5) (corn; 320 g/ha) | herbicidal effect on H (Echinochloa crus-galli var. crus-galli), grade 0-5 [2, 4] | Effect grade on crop, a: transplanted rice plant (transplanted rice plant; [4]) | effect on crop b (directly sowed rice plant), grade 0-5 [3, 4] | Effect on crop grade, f: beet (beet; [4]) | d: soybean, effect on crop grade (soybean; 320 g/ha) | Herbicidal effect grade, F: Digitaria ciliaris (Digitaria ciliaris; [4]) | D (Leptochloa chinensis) herbicidal effect grade (Leptochloa chinensis; [4]) | C (Monochoria vaginalis) herbicidal effect grade (Monochoria vaginalis; [4]) | Herbicidal effect grade, K: Lolium multiflorum Lam. (Lolium multiflorum Lam.; [4]) | c: corn, effect on crop grade (corn; 320 g/ha) | H (Echinochloa crus-galli var. crus-galli) herbicidal effect grade [2, 4] | a (transplanted rice plant) effect on crop grade (transplanted rice plant; [4]) | b (directly sowed rice plant) effect on crop grade [3, 4] | other results
CC(CC1CC(O)=C(c2c(C)cc(C)cc2C)C1=O)=NOCc1ccc(C(F)(F)F)cc1 (stereo not drawn) [1-138] | 0 (Herbicidal ratio of 5% or lower (almost no effect)) | 3 (Herbicidal ratio of 40% or higher and lower than 70%) | 0 (Herbicidal ratio of 5% or lower (almost no effect)) | 2 (Herbicidal ratio of 20% or higher and lower than 40%) | 5 (Herbicidal ratio of 90% or more (almost completely withered)) | 5 (Herbicidal ratio of 90% or more (almost completely withered)) | 2 (Herbicidal ratio of 20% or higher and lower than 40%) | 3 (Herbicidal ratio of 40% or higher and lower than 70%) | 5 (Herbicidal ratio of 90% or more (almost completely withered)) | 5 (Herbicidal ratio of 90% or more (almost completely withered)) | – | – | – | – | – | – | – | – | – | – | O: Chenopodium album, herbicidal effect grade (Chenopodium album): 0 (Herbicidal ratio of 5% or lower (almost no effect))
CC#Cc1cc(C)c(C2=C(OC(=O)COc3ccccc3)CC(CC(C)=NOCC(F)(F)F)C2=O)c(C)c1 (stereo not drawn) [9-013] | – | 5 (Herbicidal ratio of 90% or more (almost completely withered)) | – | – | – | – | – | – | – | – | 5 (Herbicidal ratio of 90% or more (almost completely withered)) | 0 (Herbicidal ratio of 5% or lower (almost no effect)) | 5 (Herbicidal ratio of 90% or more (almost completely withered)) | 5 (Herbicidal ratio of 90% or more (almost completely withered)) | 1 (Herbicidal ratio of 5% or higher and lower than 20%) | 5 (Herbicidal ratio of 90% or more (almost completely withered)) | 5 (Herbicidal ratio of 90% or more (almost completely withered)) | 5 (Herbicidal ratio of 90% or more (almost completely withered)) | 5 (Herbicidal ratio of 90% or more (almost completely withered)) | 5 (Herbicidal ratio of 90% or more (almost completely withered)) | –
CON=C(C)CC1CC(OC(=O)C2CCCO2)=C(c2c(C)cc(C)cc2C)C1=O (stereo not drawn) [1-076] | – | – | – | – | – | – | – | – | – | – | – | – | – | – | – | – | – | – | – | – | f: beet, effect grade on crop (beet; 192 g/ha): 0 (Herbicidal ratio of 5% or lower (almost no effect)); Herbicidal effect grade, A: Echinochloa oryzacola Vasing. [1, 5]: 5 (Herbicidal ratio of 90% or more (almost completely withered)); d: soybean, effect on crop (criteria 0-5) (soybean; 192 g/ha): 4 (Herbicidal ratio of 70% or higher and lower than 90%); F: Digitaria ciliaris, herbicidal effect grade (Digitaria ciliaris; 192 g/ha): 5 (Herbicidal ratio of 90% or more (almost completely withered)); herbicidal effect on D (Leptochloa chinensis), grade 0-5 (Leptochloa chinensis; [5]): 5 (Herbicidal ratio of 90% or more (almost completely withered)); Herbicidal effect grade, C: Monochoria vaginalis (Monochoria vaginalis; [5]): 0 (Herbicidal ratio of 5% or lower (almost no effect)); K: Lolium multiflorum Lam., herbicidal effect grade (Lolium multiflorum Lam.; 192 g/ha): 5 (Herbicidal ratio of 90% or more (almost completely withered)); c: corn, effect on crop (criteria 0-5) (corn; 192 g/ha): 4 (Herbicidal ratio of 70% or higher and lower than 90%); herbicidal effect on H (Echinochloa crus-galli var. crus-galli), grade 0-5 [2, 5]: 5 (Herbicidal ratio of 90% or more (almost completely withered)); Effect grade on crop, a: transplanted rice plant (transplanted rice plant; [5]): 5 (Herbicidal ratio of 90% or more (almost completely withered)); effect on crop b (directly sowed rice plant), grade 0-5 [3, 5]: 5 (Herbicidal ratio of 90% or more (almost completely withered))
CON=C(CC1CC(O)=C(c2c(C)cc(C)cc2OC)C1=O)C1CC1 (mixture of isomers) [13-002] | – | 5 (Herbicidal ratio of 90% or more (almost completely withered)) | – | – | – | – | – | – | – | – | – | 2 (Herbicidal ratio of 20% or higher and lower than 40%) | – | 5 (Herbicidal ratio of 90% or more (almost completely withered)) | 0 (Herbicidal ratio of 5% or lower (almost no effect)) | – | 5 (Herbicidal ratio of 90% or more (almost completely withered)) | 5 (Herbicidal ratio of 90% or more (almost completely withered)) | 5 (Herbicidal ratio of 90% or more (almost completely withered)) | 5 (Herbicidal ratio of 90% or more (almost completely withered)) | f: beet, effect on crop grade (beet; [4]): 0 (Herbicidal ratio of 5% or lower (almost no effect)); F: Digitaria ciliaris, herbicidal effect grade (Digitaria ciliaris; [4]): 5 (Herbicidal ratio of 90% or more (almost completely withered)); K: Lolium multiflorum Lam., herbicidal effect grade (Lolium multiflorum Lam.; [4]): 5 (Herbicidal ratio of 90% or more (almost completely withered))
CON=C(C)CC1CC(OC(=O)N2CCOCC2)=C(c2c(C)cc(C)cc2C)C1=O (stereo not drawn) [1-104] | 0 (Herbicidal ratio of 5% or lower (almost no effect)) | 5 (Herbicidal ratio of 90% or more (almost completely withered)) | 1 (Herbicidal ratio of 5% or higher and lower than 20%) | 5 (Herbicidal ratio of 90% or more (almost completely withered)) | 1 (Herbicidal ratio of 5% or higher and lower than 20%) | 5 (Herbicidal ratio of 90% or more (almost completely withered)) | 4 (Herbicidal ratio of 70% or higher and lower than 90%) | 5 (Herbicidal ratio of 90% or more (almost completely withered)) | 3 (Herbicidal ratio of 40% or higher and lower than 70%) | 5 (Herbicidal ratio of 90% or more (almost completely withered)) | – | – | – | – | – | – | – | – | – | – | F: Digitaria ciliaris, herbicidal effect grade (Digitaria ciliaris; 320 g/ha): 5 (Herbicidal ratio of 90% or more (almost completely withered))
COCCON=C(CC1CC(O)=C(c2c(C)cc(-n3cc(Cl)cn3)cc2C)C1=O)C1CC1 (stereo not drawn) [9-020] | – | 4 (Herbicidal ratio of 70% or higher and lower than 90%) | – | – | – | – | – | – | – | – | 0 (Herbicidal ratio of 5% or lower (almost no effect)) | 1 (Herbicidal ratio of 5% or higher and lower than 20%) | 4 (Herbicidal ratio of 70% or higher and lower than 90%) | 5 (Herbicidal ratio of 90% or more (almost completely withered)) | 1 (Herbicidal ratio of 5% or higher and lower than 20%) | 5 (Herbicidal ratio of 90% or more (almost completely withered)) | 5 (Herbicidal ratio of 90% or more (almost completely withered)) | 5 (Herbicidal ratio of 90% or more (almost completely withered)) | 5 (Herbicidal ratio of 90% or more (almost completely withered)) | 5 (Herbicidal ratio of 90% or more (almost completely withered)) | –
